Measured values from PMC3821527 (Bioorganic & medicinal chemistry letters, 2013).

How the values were obtained:
AAC(6′)-Ib [1] = molecular target: T1, AAC(6′)-Ib (Klebsiella pneumoniae, UniProt P19650); assay: AAC; format: biochemical; details: Lineweaver-Burk plots; for mode of inhibition with respect to acetyl CoA: variable acetyl CoA; for mode of inhibition with respect to kanamycin A: variable kanamycin A
AAC(6′)-Ib [2] = molecular target: T1, AAC(6′)-Ib; assay: AAC; format: biochemical; details: for inhibition of the acetylation of kanamycin A: 100 μM compound, 18 μM kanamycin A, 50 μM acetyl CoA, 10% DMSO

T1 sequence (P19650 whole entry): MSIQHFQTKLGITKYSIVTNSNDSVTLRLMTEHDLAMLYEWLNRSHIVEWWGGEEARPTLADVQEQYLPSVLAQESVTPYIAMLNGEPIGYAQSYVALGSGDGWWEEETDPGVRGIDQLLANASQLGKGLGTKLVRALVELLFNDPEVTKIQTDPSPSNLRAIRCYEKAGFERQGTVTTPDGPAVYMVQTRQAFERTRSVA

| SMILES | mode of inhibition with respect to acetyl CoA (AAC(6′)-Ib [1]) | mode of inhibition with respect to kanamycin A (AAC(6′)-Ib [1]) | inhibition of the acetylation of kanamycin A (AAC(6′)-Ib [2]) | inhibitory activity in the presence of 0.01% Triton X-100 (AAC(6′)-Ib [2]; 0.01% Triton X-100, to rule out non-specific protein aggregation) |
| --- | --- | --- | --- | --- |
| Cc1cccc(N2C(=O)/C(=C/c3ccccc3OCc3ccc(C(=O)O)cc3)C(=O)NC2=S)c1 [Compound 1, 4-[(2-{[1-(3-methylphenyl)-4,6-dioxo-2-thioxotetrahydro-5(2H)-pyrimidinylidene]methyl}phenoxy)methyl]benzoic acid] | noncompetitive | competitive | modest inhibition |  |
| O=C1NC(=O)N(c2ccc(Cl)cc2)C(=O)/C1=C\c1ccco1 [Compound 2b, 1-(4-chlorophenyl)-5-(2-furylmethylene)-2,4,6(1H,3H,5H)-pyrimidinetrione] |  |  | weaker inhibition |  |
| O=C1C(=Cc2ccco2)C(=O)N(c2ccccc2)C(=S)N1c1ccccc1 [Compound 2c] |  |  | lack of activity |  |
| O=C1C(=Cc2ccco2)C(=O)N(c2ccccc2)C(=O)N1c1ccccc1 [Compound 2d] |  |  | lack of activity |  |
| O=C1/C(=C/c2ccco2)C(=O)N(c2ccc(Br)cc2)C(=S)N1c1ccccc1 [Compound 5309471] |  |  |  | did not show the same level of inhibitory activity |
| O=C(O)c1ccccc1-c1ccc(C=C2C(=O)N(c3ccccc3)C(=S)N(c3ccccc3)C2=O)o1 [Compound 2, 2-{5-[(4,6-dioxo-1,3-diphenyl-2-thioxotetrahydro-5(2H)-pyrimidinylidene)methyl]-2-furyl}benzoic acid] | noncompetitive | competitive | significant inhibition |  |
